In patent US20060165769A1, “Pharmaceutical formulations containing vitamin E TPGS molecules that solubilize lipophilic drugs without significant efflux inhibition, and use of such formulations” (priority 2004, published 2006):

Test system: Caco-2 monolayers (efflux transport of Rhodamine 123)
Assay: Inhibition Protocol: Rhodamine 123 transport across Caco-2 monolayers in the presence of TPGS analog
Assay type: cell-based
Details: relative to Rhodamine 123 alone, TPGS analog 33 μmolar
Procedure: As used herein, the term “Inhibition Protocol” or “inhibition protocol” refers to the following test. The test is carried out using Caco-2 (C2BBe1 or HTB-37) monolayers which are known to be a good in vitro model for gastrointestinal epithelial cells. The following describes the inhibition protocol: Caco-2 cells, clone C2BBe1, from passages 48-92 are used. Cells are grown to ˜90% confluent in 75 cm^2 T-flasks with Dulbecco's modified Eagle's medium (DMEM) supplemented with 10% fetal bovine serum (FBS) and 1% non-essential amino-acids. Cells are grown at a temperature of ˜37° C. in an atmosphere of ˜85% relative humidity and ˜5% CO2. Cells are seeded on top of Transwell® inserts (pore size 0.4 μm, 1.13 cm^2) at a density of ˜60,000 cells/cm^2. […]
Rhodamine 123 (RHO) transport is assessed in absorptive (apical to basolateral, Ap→BI) and secretory (BI→Ap) directions. […]
Monolayers are agitated using an orbital shaker at ˜100±20 rpm. […] To ensure integrity of the monolayers, TEER values were measured on the day of the experiment and at the end of the experiment.
Apparent permeability (Papp) was calculated according to: Papp=(dQ/dt)*(1/A)*(1/Co)
where A (cm^2) is the nominal surface area of the monolayer and C0 (μg/mL) is the RHO concentration in the donor compartment at t=0. Relative change of Papp(cm/s)was calculated according to the equation: rel. increase/decrease=|(1−Papp(TPGS)/Papp(RHO))*100|. […]

## d-α-tocopheryl polyethylene glycol succinate [TPGS 1000]
  % Decrease, B to A: 73.6%
  % Increase, A to B: 82.5%
